Measured values: publication PMC12169608, “Peptidomimetic Phenoxymethyl Ketone Warheads as Potent Dual-Mode Inhibitors against SARS-CoV‑2 M^pro and Cathepsin” (Journal of Medicinal Chemistry, 2025)
In brackets after ≈: the same amount, converted by molar mass.

Assays:
[1] = molecular target: T1, human cathepsin L (hCTSL) (Homo sapiens, UniProt P07711); assay: hCTSL biochemical assay
T1 construct: purchased R&D Systems

[2] = molecular target: human cathepsin B (hCTSB) (Homo sapiens, UniProt P07858); assay: hCTSB biochemical assay
[3] = molecular target: mouse cathepsin L (mCTSL) (Mus musculus, UniProt P06797); assay: mCTSL biochemical assay; details: read-out: pIC50 (mouse CTSL) (converted)
mouse cathepsin L (mCTSL), sequence (P06797 114-334): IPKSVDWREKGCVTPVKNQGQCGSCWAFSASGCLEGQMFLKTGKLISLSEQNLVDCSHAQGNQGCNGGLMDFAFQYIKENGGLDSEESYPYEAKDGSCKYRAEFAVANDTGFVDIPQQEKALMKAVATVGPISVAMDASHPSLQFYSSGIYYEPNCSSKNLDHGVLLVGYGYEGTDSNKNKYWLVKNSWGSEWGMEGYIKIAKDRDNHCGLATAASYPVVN

[4] = molecular target: mouse cathepsin B (mCTSB) (Mus musculus, UniProt P10605); assay: mCTSB biochemical assay; details: read-out: pIC50 (mouse CTSB) (converted)
mouse cathepsin B (mCTSB), sequence (P10605 80-339): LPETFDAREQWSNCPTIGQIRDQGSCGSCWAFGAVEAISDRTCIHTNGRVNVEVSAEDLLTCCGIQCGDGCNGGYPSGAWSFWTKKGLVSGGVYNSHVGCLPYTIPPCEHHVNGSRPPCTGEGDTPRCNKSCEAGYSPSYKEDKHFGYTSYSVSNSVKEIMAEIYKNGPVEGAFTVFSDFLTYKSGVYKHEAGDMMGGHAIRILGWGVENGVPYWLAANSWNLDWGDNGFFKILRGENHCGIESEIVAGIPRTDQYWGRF

[5] = molecular target: hamster CTSL (Mesocricetus auratus, UniProt Q812A7); assay: hamster CTSL biochemical assay
hamster CTSL, sequence (Q812A7 entry or part of it): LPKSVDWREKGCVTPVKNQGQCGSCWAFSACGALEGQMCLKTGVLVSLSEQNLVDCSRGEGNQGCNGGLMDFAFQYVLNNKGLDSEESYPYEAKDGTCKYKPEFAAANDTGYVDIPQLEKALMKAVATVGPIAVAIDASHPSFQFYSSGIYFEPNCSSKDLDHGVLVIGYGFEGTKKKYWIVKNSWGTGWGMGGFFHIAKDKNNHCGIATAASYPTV

[6] = system: SARS-CoV-2; assay: microbe, parasite or virus in culture; format: cell-based; details: Severe acute respiratory syndrome coronavirus 2, Vero C1008, read-out: SARS-CoV-2 CPE reduction assay pEC50 (converted)
[7] = molecular target: T2, thrombin (Homo sapiens, UniProt P00734); assay: Protease panel: thrombin; format: biochemical
T2 construct: preincubated with thrombin (10 nM, Sigma); purchased Sigma-Aldrich

[8] = 3 h, 2 µM
[9] = in vitro; details: African green monkey
[10] = physchem; details: pH 7.4
[11] = physchem; details: pH 7.4; remark: listed apart in the source
[12] = in vitro; details: mouse, plasma, mouse plasma protein binding
[13] = in vitro; details: mouse, hepatocytes
[14] = in vitro; details: hamster, hepatocytes; for hepatocyte CLint at 2 h, 4 µM: CLint (hamster hepatocytes + ritonavir 4:1); for hepatocyte CLint at 2 h, 2 µM: CLint (hamster hepatocytes); for half-life at 2 h, 4 µM: t1/2 (hamster hepatocytes + ritonavir 4:1)
[15] = in vitro; details: hamster, microsomes, pH 7.4
[16] = system: trypsin; assay: Protease panel: trypsin
[17] = Mouse hepatocyte stability; details: mouse, cryopreserved hepatocytes
[18] = Hamster hepatocyte stability; details: cryopreserved hepatocytes, t1/2 (hamster hepatocytes), without ritonavir
[19] = Hamster liver microsomal stability; details: microsomes, pH 7.4
[20] = molecular target: SARS-CoV-2 M^pro (Severe acute respiratory syndrome coronavirus 2, UniProt P0DTD1); assay: biochemical; format: biochemical; details: read-out: M^pro biochemical assay pIC50 (converted)
[21] = system: luciferase-expressing VSV (ΔG) pseudotyped with Spike from SARS-CoV-2; assay: microbe, parasite or virus in culture; format: cell-based; details: Vesicular stomatitis virus, Vero C1008, read-out: Entry reporter assay pEC50 (converted)
[22] = molecular target: T3, Calpain-1 (Homo sapiens, UniProt P07384); assay: Protease panel: Calpain-1; format: biochemical
T3 construct: erythrocytes; tissue Eurofins Discovery (assay service); host or cells: human erythrocytes
T3 sequence (P07384 1-714): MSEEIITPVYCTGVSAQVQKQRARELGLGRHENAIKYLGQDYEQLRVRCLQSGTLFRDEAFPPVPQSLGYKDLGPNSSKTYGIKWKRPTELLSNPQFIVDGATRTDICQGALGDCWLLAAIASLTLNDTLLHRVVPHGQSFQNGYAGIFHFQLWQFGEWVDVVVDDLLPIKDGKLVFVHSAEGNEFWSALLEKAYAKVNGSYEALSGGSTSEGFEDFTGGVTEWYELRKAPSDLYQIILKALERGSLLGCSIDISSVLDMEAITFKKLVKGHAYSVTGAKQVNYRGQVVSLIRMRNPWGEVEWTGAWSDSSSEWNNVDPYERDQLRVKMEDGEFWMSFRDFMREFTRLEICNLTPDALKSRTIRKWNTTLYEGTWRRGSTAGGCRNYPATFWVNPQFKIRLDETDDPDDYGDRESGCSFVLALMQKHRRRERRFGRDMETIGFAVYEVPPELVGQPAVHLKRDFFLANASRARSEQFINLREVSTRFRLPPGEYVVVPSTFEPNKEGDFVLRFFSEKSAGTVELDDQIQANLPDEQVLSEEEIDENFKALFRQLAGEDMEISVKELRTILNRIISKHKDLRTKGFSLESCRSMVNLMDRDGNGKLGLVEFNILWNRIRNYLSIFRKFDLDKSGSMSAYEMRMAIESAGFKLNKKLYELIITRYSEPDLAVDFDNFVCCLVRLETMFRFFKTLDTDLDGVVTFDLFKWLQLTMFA
T3 sequence (P04632 1-268 partner): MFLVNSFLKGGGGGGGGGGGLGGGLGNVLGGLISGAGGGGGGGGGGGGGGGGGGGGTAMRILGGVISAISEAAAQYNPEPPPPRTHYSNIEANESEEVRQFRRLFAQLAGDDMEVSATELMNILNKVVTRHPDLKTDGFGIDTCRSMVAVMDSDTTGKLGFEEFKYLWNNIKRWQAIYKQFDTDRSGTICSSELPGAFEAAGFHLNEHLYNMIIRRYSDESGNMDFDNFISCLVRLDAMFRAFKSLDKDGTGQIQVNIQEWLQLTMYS

[23] = molecular target: T4, Caspase 2 (Homo sapiens, UniProt P42575); assay: Protease panel: Caspase 2; format: biochemical
T4 construct: purchased Eurofins Discovery (assay service); host or cells: E. coli
T4 sequence (P42575 170-325 limits assumed): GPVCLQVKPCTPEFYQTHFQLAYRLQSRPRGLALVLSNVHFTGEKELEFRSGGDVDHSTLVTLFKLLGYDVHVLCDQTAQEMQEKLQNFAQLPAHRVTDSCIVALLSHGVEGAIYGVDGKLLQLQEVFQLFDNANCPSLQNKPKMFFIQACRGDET
T4 sequence (P42575 348-452 limits assumed): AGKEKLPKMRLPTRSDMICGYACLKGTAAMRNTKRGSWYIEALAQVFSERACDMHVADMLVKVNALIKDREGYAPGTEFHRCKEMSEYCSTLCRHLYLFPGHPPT

[24] = molecular target: T5, Cathepsin D (Homo sapiens, UniProt P07339); assay: Protease panel: Cathepsin D; format: biochemical
T5 construct: Human liver; tissue Eurofins Discovery (assay service); host or cells: human liver
T5 sequence (P07339 65-412): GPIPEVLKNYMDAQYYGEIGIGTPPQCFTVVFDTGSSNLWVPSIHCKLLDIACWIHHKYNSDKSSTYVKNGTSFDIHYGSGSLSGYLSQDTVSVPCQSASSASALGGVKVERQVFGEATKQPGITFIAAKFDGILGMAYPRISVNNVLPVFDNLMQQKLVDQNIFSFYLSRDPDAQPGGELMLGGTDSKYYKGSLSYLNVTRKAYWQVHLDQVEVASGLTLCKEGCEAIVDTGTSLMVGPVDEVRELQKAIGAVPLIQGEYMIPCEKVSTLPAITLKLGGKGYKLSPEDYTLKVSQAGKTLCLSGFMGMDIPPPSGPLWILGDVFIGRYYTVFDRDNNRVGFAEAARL

[25] = molecular target: T6, Neutrophil Elastase 2 (Homo sapiens, UniProt P08246); assay: Protease panel: Neutrophil Elastase 2; format: biochemical
T6 construct: neutrophils; tissue Eurofins Discovery (assay service); host or cells: human neutrophils
T6 sequence (P08246 30-267): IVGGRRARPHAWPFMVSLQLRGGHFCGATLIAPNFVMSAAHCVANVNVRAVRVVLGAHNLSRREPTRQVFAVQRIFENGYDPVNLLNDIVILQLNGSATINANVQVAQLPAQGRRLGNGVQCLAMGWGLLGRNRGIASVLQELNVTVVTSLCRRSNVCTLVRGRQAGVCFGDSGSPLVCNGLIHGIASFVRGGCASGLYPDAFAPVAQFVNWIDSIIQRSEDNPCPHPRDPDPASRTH

[26] = in vitro; details: mouse, microsomes, pH 7.4
[27] = Mouse liver microsomal stability; details: microsomes, pH 7.4
[28] = % remaining at 120 min (hamster hepatocytes, compound/ritonavir 1:1)
[29] = % remaining at 120 min (hamster hepatocytes, compound/ritonavir 2:1)
[30] = CLint (hamster hepatocytes, compound/ritonavir 1:1)
[31] = CLint (hamster hepatocytes, compound/ritonavir 2:1)
[32] = t1/2 (hamster hepatocytes, compound/ritonavir 1:1)
[33] = t1/2 (hamster hepatocytes, compound/ritonavir 2:1)

T1 sequence (P07711 114-333): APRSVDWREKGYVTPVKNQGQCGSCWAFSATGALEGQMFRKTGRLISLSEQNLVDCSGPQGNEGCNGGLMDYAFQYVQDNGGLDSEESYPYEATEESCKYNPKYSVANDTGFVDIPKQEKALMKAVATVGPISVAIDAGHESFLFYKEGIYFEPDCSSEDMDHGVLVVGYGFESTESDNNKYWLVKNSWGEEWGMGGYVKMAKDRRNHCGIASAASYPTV

CC(C)(C)[C@H](NC(=O)C(F)(F)F)C(=O)N1C[C@H]2[C@@H]([C@H]1C(=O)N[C@@H](C[C@@H]1CCNC1=O)C(=O)COc1c(F)c(F)c(CO)c(F)c1F)C2(C)C [compound 7, (1R,2S,5S)-3-((S)-3,3-Dimethyl-2-(2,2,2-trifluoroacetamido)butanoyl)-6,6-dimethyl-N-((S)-3-oxo-1-((S)-2-oxopyrrolidin-3-yl)-4-(2,3,5,6-tetrafluoro-4-(hydroxymethyl)phenoxy)butan-2-yl)-3-azabicyclo[3.1.0]hexane-2-carboxamide]
hCTSL biochemical assay pIC50 [1]: < 4.30
hCTSL activity (in words) ([1]; biochemical assay): no hCTSL and hCTSB activity was observed
hCTSB biochemical assay pIC50 [2]: 4.82
hCTSB activity (in words) ([2]; biochemical assay): no hCTSL and hCTSB activity was observed
IC50 [3]: 35500 nM
IC50 [4]: 1860 nM
pIC50 (hamster CTSL) [5]: 5.07 ± 0.10
EC50 [6]: 50.1 nM
inhibition at 10 µM [7]: 0.4 ± 0.9%
mouse plasma protein binding, fraction bound (Fb) [8]: 96.45%
CC50 [9]: > 501 nM
logD at 1 h [10]: 2.82
solubility kinetic at 24 h [11]: 71.3 µM (≈ 50.7 µg/mL)
fraction unbound at 3 h, 2 µM ([12]; fraction bound (Fb)): 0.0355
fraction unbound at 3 h, 2 µM ([12]; fraction unbound (Fu)): 0.0355
hepatocyte CLint at 1 µM ([13]; CLint (mouse hepatocytes + ritonavir 4:1)): 21.8 µL/min/1e6 cells
hepatocyte CLint at 1 µM ([13]; CLint (mouse hepatocytes)): 121 µL/min/1e6 cells
remaining at 2 h, 1 µM [14, 28]: 20.8%
remaining at 2 h, 1 µM [14, 29]: 3.47%
hepatocyte CLint at 2 h, 4 µM [14]: 41.9 µL/min/1e6 cells
hepatocyte CLint at 2 h, 2 µM [14]: 50.2 µL/min/1e6 cells
hepatocyte CLint at 1 µM [14, 30]: 12.5 µL/min/1e6 cells
hepatocyte CLint at 1 µM [14, 31]: 27.4 µL/min/1e6 cells
half-life at 2 h, 4 µM [14]: 16.6 min
half-life at 1 µM [14, 32]: 55.5 min
half-life at 1 µM [14, 33]: 25.3 min
microsomal CLint at 1 µM [15]: 803 µL/min/mg
remaining at 1 h, 1 µM [15]: 0.15%
Trypsin inhibition at 10 μM [16]: 9.9 ± 6.6%
half-life at 1 µM [17]: 14.3 min
half-life at 2 h, 2 µM [18]: 13.8 min
half-life at 1 µM [19]: 1.73 min

COc1cccc2[nH]c(C(=O)N[C@@H](Cc3cccc(F)c3)C(=O)N[C@@H](C[C@@H]3CCNC3=O)C(=O)COc3c(F)c(F)c(C(C)O)c(F)c3F)cc12 (stereo partly drawn) [compound 8, N-((2S)-3-(3-Fluorophenyl)-1-oxo-1-(((2S)-3-oxo-1-((S)-2-oxopyrrolidin-3-yl)-4-(2,3,5,6-tetrafluoro-4-(1-hydroxyethyl)phenoxy)butan-2-yl)amino)propan-2-yl)-4-methoxy-1H-indole-2-carboxamide]
IC50 [20]: 5.62 nM
hCTSL biochemical assay pIC50 [1]: 7.34
hCTSB biochemical assay pIC50 [2]: 5.73
IC50 [3]: 288 nM
pIC50 (hamster CTSL) [5]: 7.92 ± 0.18
EC50 [21]: 2880 nM
EC50 [6]: 158 nM
inhibition at 10 µM [22]: 5%
inhibition at 10 µM [23]: 20%
inhibition at 10 µM [24]: 9%
inhibition at 10 µM [25]: 2%
inhibition at 10 µM [7]: -0.2 ± 0.6%
mouse plasma protein binding, fraction bound (Fb) [8]: 99.17%
CC50 [9]: > 1260 nM
logD at 1 h [10]: 3.26
solubility kinetic at 24 h [11]: 12.3 µM (≈ 8.81 µg/mL)
fraction unbound at 3 h, 2 µM ([12]; fraction bound (Fb)): 0.0083
fraction unbound at 3 h, 2 µM ([12]; fraction unbound (Fu)): 0.0083
hepatocyte CLint at 2 h, 2 µM ([13]; CLint (mouse hepatocytes)): 64.5 µL/min/1e6 cells
remaining at 2 h, 1 µM [14, 28]: 7.05%
remaining at 2 h, 1 µM [14, 29]: 2.78%
hepatocyte CLint at 2 h, 4 µM [14]: 29.7 µL/min/1e6 cells
hepatocyte CLint at 2 h, 2 µM [14]: 33.1 µL/min/1e6 cells
hepatocyte CLint at 1 µM [14, 30]: 22.6 µL/min/1e6 cells
hepatocyte CLint at 1 µM [14, 31]: 31.7 µL/min/1e6 cells
half-life at 2 h, 4 µM [14]: 23.3 min
half-life at 1 µM [14, 32]: 30.7 min
half-life at 1 µM [14, 33]: 21.9 min
microsomal CLint at 1 µM [26]: 1100 µL/min/mg
remaining at 1 h, 1 µM [26]: 0%
microsomal CLint at 1 µM [15]: 1290 µL/min/mg
remaining at 1 h, 1 µM [15]: 0%
Trypsin inhibition at 10 μM [16]: 7.5 ± 4.9%
half-life at 1 µM [17]: 26.9 min
half-life at 2 h, 2 µM [18]: 20.9 min
half-life at 1 µM [27]: 1.28 min
half-life at 1 µM [19]: 1.08 min

COc1cccc2[nH]c(C(=O)N[C@@H](Cc3cccc(F)c3)C(=O)N[C@@H](C[C@@H]3CCNC3=O)C(=O)COc3c(F)c(F)c(C(C)(C)O)c(F)c3F)cc12 [compound 10, N-((S)-3-(3-Fluorophenyl)-1-oxo-1-(((S)-3-oxo-1-((S)-2-oxopyrrolidin-3-yl)-4-(2,3,5,6-tetrafluoro-4-(2-hydroxypropan-2-yl)phenoxy)butan-2-yl)amino)propan-2-yl)-4-methoxy-1H-indole-2-carboxamide]
IC50 [20]: 7.08 nM
hCTSL biochemical assay pIC50 [1]: 6.95
hCTSB biochemical assay pIC50 [2]: 5.94
IC50 [3]: 933 nM
EC50 [21]: 2040 nM
EC50 [6]: 120 nM
mouse plasma protein binding, fraction bound (Fb) [8]: 98.95%
CC50 [9]: > 1260 nM
logD at 1 h [10]: 3.15
solubility kinetic at 24 h [11]: 3.65 µM (≈ 2.67 µg/mL)
fraction unbound at 3 h, 2 µM ([12]; fraction bound (Fb)): 0.0105
fraction unbound at 3 h, 2 µM ([12]; fraction unbound (Fu)): 0.0105
hepatocyte CLint at 2 h, 2 µM ([13]; CLint (mouse hepatocytes)): 47.6 µL/min/1e6 cells
remaining at 2 h, 1 µM [14, 28]: 11.6%
remaining at 2 h, 1 µM [14, 29]: 2.17%
hepatocyte CLint at 2 h, 4 µM [14]: 19.4 µL/min/1e6 cells
hepatocyte CLint at 2 h, 2 µM [14]: 27.5 µL/min/1e6 cells
hepatocyte CLint at 1 µM [14, 30]: 16.4 µL/min/1e6 cells
hepatocyte CLint at 1 µM [14, 31]: 30.7 µL/min/1e6 cells
half-life at 2 h, 4 µM [14]: 35.7 min
half-life at 1 µM [14, 32]: 42.2 min
half-life at 1 µM [14, 33]: 22.6 min
microsomal CLint at 1 µM [26]: 780 µL/min/mg
remaining at 1 h, 1 µM [26]: 0%
microsomal CLint at 1 µM [15]: 500 µL/min/mg
remaining at 1 h, 1 µM [15]: 0%
half-life at 1 µM [17]: 36.4 min
half-life at 2 h, 2 µM [18]: 25.2 min
half-life at 1 µM [27]: 1.9 min
half-life at 1 µM [19]: 2.77 min
